Measurements published in patent US20260234157A1, “COMPOUND AND METHOD FOR TARGETED DEGRADATION OF ANDROGEN RECEPTOR” (Gan & Lee Pharmaceuticals Co., Ltd., priority 2023, published 2026).
Substitutions are numbered along the chain they refer to.

Molecular target: T1, AR protein (Homo sapiens, UniProt P10275, T878A)
T1 construct: degradation activity of the compounds disclosed in the present disclosure on AR protein in LNCaP cells; host or cells: LNCaP FGC
T1 sequence (P10275 1-920 T878A): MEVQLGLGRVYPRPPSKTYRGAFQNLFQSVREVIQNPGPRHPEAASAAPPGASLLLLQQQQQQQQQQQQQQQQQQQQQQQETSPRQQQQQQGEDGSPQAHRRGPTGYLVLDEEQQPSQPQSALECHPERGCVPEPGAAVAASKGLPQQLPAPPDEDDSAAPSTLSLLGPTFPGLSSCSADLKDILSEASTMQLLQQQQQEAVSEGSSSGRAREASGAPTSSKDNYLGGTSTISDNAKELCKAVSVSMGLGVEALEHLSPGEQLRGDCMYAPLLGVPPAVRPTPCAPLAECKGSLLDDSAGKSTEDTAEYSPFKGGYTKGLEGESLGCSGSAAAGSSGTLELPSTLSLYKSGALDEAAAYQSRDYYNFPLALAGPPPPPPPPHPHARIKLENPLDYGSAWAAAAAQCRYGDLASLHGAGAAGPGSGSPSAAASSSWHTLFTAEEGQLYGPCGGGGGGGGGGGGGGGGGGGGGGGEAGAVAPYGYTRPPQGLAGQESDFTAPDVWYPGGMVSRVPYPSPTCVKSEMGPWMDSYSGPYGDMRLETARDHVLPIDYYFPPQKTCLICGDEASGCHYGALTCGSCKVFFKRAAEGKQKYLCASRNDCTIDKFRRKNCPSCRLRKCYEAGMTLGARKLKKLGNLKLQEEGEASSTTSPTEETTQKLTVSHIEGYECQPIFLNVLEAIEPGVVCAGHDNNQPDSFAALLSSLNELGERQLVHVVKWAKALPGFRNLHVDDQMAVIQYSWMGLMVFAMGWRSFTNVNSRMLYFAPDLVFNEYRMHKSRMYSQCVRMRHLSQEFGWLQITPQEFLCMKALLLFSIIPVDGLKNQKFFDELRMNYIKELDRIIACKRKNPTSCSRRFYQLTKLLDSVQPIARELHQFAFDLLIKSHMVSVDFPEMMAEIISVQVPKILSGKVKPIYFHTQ
Assay: Degradation of AR protein in LNCaP cells (Western blot)
Type: cell-based
Details: LNCaP cells, compound 10 nM, 8 hours, Western blot grayscale, GAPDH internal reference; read-out: Degradation rates of the AR protein in LNCaP cells, 10 nM (%)
Summary of the method: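 AR assessed by SDS-PAGE/Western blot with infrared imaging; band greyscale normalised to GAPDH gave percent degradation.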

Row | Compound | inhibition at 0.01 µM
1 | COc1cc(O[C@H]2CC[C@H](NC(=O)c3cnc(N4CCC(CN5CC6(CCc7cc8c(cc7O6)C(=O)N(C6CCC(=O)NC6=O)C8=O)C5)(OC)CC4)nc3)CC2)ccc1C#N (stereo partly drawn) [Compound 232] | 33%
2 | COc1cc(O[C@H]2C(C)(C)[C@H](NC(=O)c3ccc(N4CCC(F)(CN5CC6(CCc7ccc8c(c7O6)C(=O)N(C6CCC(=O)NC6=O)C8=O)C5)CC4)cc3)C2(C)C)ccc1C#N (stereo partly drawn) [Compound 274] | -3%

Same assay, conditions: LNCaP cells, compound 100 nM, 8 hours, Western blot grayscale, GAPDH internal reference; read-out: Degradation rates of the AR protein in LNCaP cells, 100 nM (%)

Row | Compound | inhibition at 0.1 µM
3 | COc1cc(O[C@H]2CC[C@H](NC(=O)c3cnc(N4CCC(CN5CC6(CCc7cc8c(cc7O6)C(=O)N(C6CCC(=O)NC6=O)C8=O)C5)(OC)CC4)nc3)CC2)ccc1C#N (stereo partly drawn) [Compound 232] | 36%
4 | COc1cc(O[C@H]2C(C)(C)[C@H](NC(=O)c3ccc(N4CCC(F)(CN5CC6(CCc7ccc8c(c7O6)C(=O)N(C6CCC(=O)NC6=O)C8=O)C5)CC4)cc3)C2(C)C)ccc1C#N (stereo partly drawn) [Compound 274] | -5%

Same assay, conditions: LNCaP, 8 h, read-out: Degradation rates of the AR protein in LNCaP cells, 10 nM (%)

Row | Compound | inhibition at 0.01 µM
5 | N#Cc1ccc(O[C@H]2CC[C@H](NC(=O)c3ccc(N4CC(N5CCC6(CCc7cc8c(cc7O6)C(=O)N(C6CCC(=O)NC6=O)C8)CC5)C4)nn3)CC2)cc1Cl (stereo partly drawn) [Compound 46] | 35%
6 | COc1cc(O[C@H]2CC[C@H](NC(=O)c3ccc(N4CCC(CN5CC6(CCc7cc8c(cc7O6)C(=O)N(C6CCC(=O)NC6=O)C8=O)C5)(OC)CC4)cc3)CC2)ccc1C#N (stereo partly drawn) [Compound 285] | 40%

Same assay, conditions: LNCaP, 8 h, read-out: Degradation rates of the AR protein in LNCaP cells, 100 nM (%)

Row | Compound | inhibition at 0.1 µM
7 | N#Cc1ccc(O[C@H]2CC[C@H](NC(=O)c3ccc(N4CC(N5CCC6(CCc7cc8c(cc7O6)C(=O)N(C6CCC(=O)NC6=O)C8)CC5)C4)nn3)CC2)cc1Cl (stereo partly drawn) [Compound 46] | 47%
8 | COc1cc(O[C@H]2CC[C@H](NC(=O)c3ccc(N4CCC(CN5CC6(CCc7cc8c(cc7O6)C(=O)N(C6CCC(=O)NC6=O)C8=O)C5)(OC)CC4)cc3)CC2)ccc1C#N (stereo partly drawn) [Compound 285] | 54%

Molecular target: T2, AR protein (Homo sapiens, UniProt P10275)
T2 construct: degradation activity of the compounds disclosed in the present disclosure on AR protein in VCaP cells; host or cells: VCaP
T2 sequence (P10275 1-920): T1 sequence (P10275 1-920 T878A) with A878T
Assay: Degradation of AR protein in VCaP cells (Western blot)
Type: cell-based
Details: compound at 10 nM, 8 hours, read-out: Degradation rate of the AR protein in VCaP cells, 10 nM (%)
Summary of the method: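 VCaP cells treated with compound alongside solvent controls for 8 h, then lysed in RIPA and protein quantified by BCA. AR detected by SDS-PAGE/Western blot with infrared imaging. Degradation rate calculated from band grayscale, with GAPDH as internal reference.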

Row | Compound | inhibition at 0.01 µM
9 | N#Cc1ccc(O[C@H]2CC[C@H](NC(=O)c3ccc(N4CC(N5CCC6(CCc7cc8c(cc7O6)C(=O)N(C6CCC(=O)NC6=O)C8)CC5)C4)nn3)CC2)cc1Cl (stereo partly drawn) [Compound 46] | 39%
10 | COc1cc(O[C@H]2CC[C@H](NC(=O)c3cnc(N4CCC(CN5CC6(CCc7cc8c(cc7O6)C(=O)N(C6CCC(=O)NC6=O)C8=O)C5)(OC)CC4)nc3)CC2)ccc1C#N (stereo partly drawn) [Compound 232] | 37%
11 | COc1cc(O[C@H]2C(C)(C)[C@H](NC(=O)c3ccc(N4CCC(F)(CN5CC6(CCc7ccc8c(c7O6)C(=O)N(C6CCC(=O)NC6=O)C8=O)C5)CC4)cc3)C2(C)C)ccc1C#N (stereo partly drawn) [Compound 274] | 4%
12 | COc1cc(O[C@H]2CC[C@H](NC(=O)c3ccc(N4CCC(CN5CC6(CCc7cc8c(cc7O6)C(=O)N(C6CCC(=O)NC6=O)C8=O)C5)(OC)CC4)cc3)CC2)ccc1C#N (stereo partly drawn) [Compound 285] | -5%

Same assay, conditions: compound at 100 nM, 8 hours, read-out: Degradation rate of the AR protein in VCaP cells, 100 nM (%)

Row | Compound | inhibition at 0.1 µM
13 | N#Cc1ccc(O[C@H]2CC[C@H](NC(=O)c3ccc(N4CC(N5CCC6(CCc7cc8c(cc7O6)C(=O)N(C6CCC(=O)NC6=O)C8)CC5)C4)nn3)CC2)cc1Cl (stereo partly drawn) [Compound 46] | 59%
14 | COc1cc(O[C@H]2CC[C@H](NC(=O)c3cnc(N4CCC(CN5CC6(CCc7cc8c(cc7O6)C(=O)N(C6CCC(=O)NC6=O)C8=O)C5)(OC)CC4)nc3)CC2)ccc1C#N (stereo partly drawn) [Compound 232] | 43%
15 | COc1cc(O[C@H]2C(C)(C)[C@H](NC(=O)c3ccc(N4CCC(F)(CN5CC6(CCc7ccc8c(c7O6)C(=O)N(C6CCC(=O)NC6=O)C8=O)C5)CC4)cc3)C2(C)C)ccc1C#N (stereo partly drawn) [Compound 274] | -13%
16 | COc1cc(O[C@H]2CC[C@H](NC(=O)c3ccc(N4CCC(CN5CC6(CCc7cc8c(cc7O6)C(=O)N(C6CCC(=O)NC6=O)C8=O)C5)(OC)CC4)cc3)CC2)ccc1C#N (stereo partly drawn) [Compound 285] | 66%

Test system: LNCaP FGC cells
Assay: Inhibition of proliferation of LNCaP cells (WST-8)
Type: cell-based
Details: Homo sapiens, LNCaP, 96 h, LNCaP FGC cells, 96 hours, WST-8 absorbance at 450 nm; read-out: IC50 for inhibiting the proliferation of LNCaP cells
Procedure: The cells were cultured in a cell culture incubator with 5% CO2 at 37° C. overnight. […] On the sixth day, 96 well plates were taken out, and 20 μL of WST-8 (Beytime, C0040) reagent was added to each well.

Row | Compound | IC50
17 | N#Cc1ccc(O[C@H]2CC[C@H](NC(=O)c3ccc(N4CC[C@@H](CN5CCC6(CCc7cc8c(cc7O6)C(=O)N(C6CCC(=O)NC6=O)C8=O)CC5)C4)nn3)CC2)cc1Cl (stereo partly drawn) [Compound 21] | 0.56 µM
18 | CC1(CN2CC3(CCc4cc5c(cc4O3)CN(C3CCC(=O)NC3=O)C5=O)C2)CCN(c2ccc(C(=O)N[C@H]3CC[C@H](Oc4ccc(C#N)c(Cl)c4)CC3)nn2)CC1 (stereo partly drawn) [Compound 80] | 0.73 µM
19 | COc1cc(O[C@H]2C(C)(C)[C@H](NC(=O)c3ccc(N4CCC(F)(CN5CC6(CCc7ccc8c(c7O6)C(=O)N(C6CCC(=O)NC6=O)C8=O)C5)CC4)cc3)C2(C)C)ccc1C#N (stereo partly drawn) [Compound 274] | 84.9 µM

Same assay, conditions: Homo sapiens, LNCaP, 96 h, read-out: IC50 for inhibiting the proliferation of LNCaP cells, LNCaP FGC cells, 96 hours, WST-8 absorbance at 450 nm

Row | Compound | IC50
20 | CC1(C)C(=O)N(c2ccc(C#N)c(C(F)(F)F)c2)C(=S)N1c1ccc(C(=O)N2CCC(F)(CN3CC4(CCc5cc6c(cc5O4)C(=O)N(C4CCC(=O)NC4=O)C6)C3)CC2)c(F)c1 (stereo not drawn) [Compound 81] | 3.86 µM
21 | CC1(C)C(=O)N(c2ccc(C#N)c(C(F)(F)F)c2)C(=S)N1c1ccc(C(=O)N2CCC(CN3CCC4(CC3)COc3cc5c(cc3C4)C(=O)N(C3CCC(=O)NC3=O)C5=O)CC2)c(F)c1 (stereo not drawn) [Compound 82] | 3.39 µM
22 | CC1(C)C(=O)N(c2ccc(C#N)c(C(F)(F)F)c2)C(=S)N1c1ccc(C(=O)N2CC[C@@H](CN3CCC4(CC3)COc3cc5c(cc3C4)C(=O)N(C3CCC(=O)NC3=O)C5=O)C2)c(F)c1 (stereo partly drawn) [Compound 83] | 7.06 µM
23 | COc1cc(O[C@H]2CC[C@H](NC(=O)c3ccc(N4CCC(CN5CC6(CCc7cc8c(cc7O6)C(=O)N(C6CCC(=O)NC6=O)C8=O)C5)(OC)CC4)cc3)CC2)ccc1C#N (stereo partly drawn) [Compound 285] | 0.84 µM

Test system: VCaP cells
Assay: Inhibition of proliferation of VCaP cells (WST-8)
Type: cell-based
Details: Homo sapiens, VCaP, 168 h, read-out: IC50 for inhibiting the proliferation of VCaP cells
Procedure: The inhibitory activity of the compounds disclosed in the present disclosure on the proliferation of VCaP cells
On the first day of the experiment, […] were inoculated in 96 well plates at a density of 15000 cells per well using DMEM medium containing 10% fetal bovine serum, with 100 μL of cell suspension per well. The cells were cultured in a cell culture incubator with 5% CO2 at 37° C. overnight. […] On the ninth day, 96 well plates were taken out, and 20 μL of WST-8 (Beytime, C0040) reagent was added to each well.

Row | Compound | IC50
24 | N#Cc1ccc(O[C@H]2CC[C@H](NC(=O)c3ccc(N4CC(N5CCC6(CCc7cc8c(cc7O6)C(=O)N(C6CCC(=O)NC6=O)C8)CC5)C4)nn3)CC2)cc1Cl (stereo partly drawn) [Compound 46] | 0.11 µM
25 | CC1(C)C(=O)N(c2ccc(C#N)c(C(F)(F)F)c2)C(=S)N1c1ccc(C(=O)N2CCC(F)(CN3CC4(CCc5cc6c(cc5O4)C(=O)N(C4CCC(=O)NC4=O)C6)C3)CC2)c(F)c1 (stereo not drawn) [Compound 81] | 0.03 µM
26 | CC1(C)C(=O)N(c2ccc(C#N)c(C(F)(F)F)c2)C(=S)N1c1ccc(C(=O)N2CCC(CN3CCC4(CC3)COc3cc5c(cc3C4)C(=O)N(C3CCC(=O)NC3=O)C5=O)CC2)c(F)c1 (stereo not drawn) [Compound 82] | 4.26 µM
27 | CC1(C)C(=O)N(c2ccc(C#N)c(C(F)(F)F)c2)C(=S)N1c1ccc(C(=O)N2CC[C@@H](CN3CCC4(CC3)COc3cc5c(cc3C4)C(=O)N(C3CCC(=O)NC3=O)C5=O)C2)c(F)c1 (stereo partly drawn) [Compound 83] | 9.73 µM

Same assay, conditions: Homo sapiens; VCaP cells, 168 hours, WST-8 absorbance at 450 nm; read-out: IC50 for inhibiting the proliferation of VCaP cells

Row | Compound | IC50
28 | N#Cc1ccc(O[C@H]2CC[C@H](NC(=O)c3ccc(N4CC[C@@H](CN5CCC6(CCc7cc8c(cc7O6)C(=O)N(C6CCC(=O)NC6=O)C8=O)CC5)C4)nn3)CC2)cc1Cl (stereo partly drawn) [Compound 21] | 0.38 µM
29 | CC1(CN2CC3(CCc4cc5c(cc4O3)CN(C3CCC(=O)NC3=O)C5=O)C2)CCN(c2ccc(C(=O)N[C@H]3CC[C@H](Oc4ccc(C#N)c(Cl)c4)CC3)nn2)CC1 (stereo partly drawn) [Compound 80] | 2.83 µM
30 | COc1cc(O[C@H]2CC[C@H](NC(=O)c3cnc(N4CCC(CN5CC6(CCc7cc8c(cc7O6)C(=O)N(C6CCC(=O)NC6=O)C8=O)C5)(OC)CC4)nc3)CC2)ccc1C#N (stereo partly drawn) [Compound 232] | 4.41 µM
